Measurements: patent EP0237472A2, “An ameliorating agent for pulmonary fibrosis and the use thereof” (Zyma SA, priority 1986, dated 1987)

Key:
[1] = acute oral toxicity (LD50) to male mice; settings: mouse, in vivo
[2] = test system: female Sprague-Dawley rats; experiment: CCl4-induced lung fibrosis (lung collagen accumulation) in rats; type: in vivo
Procedure: The animals used were female Sprague-Dawley rats fed on a commercial diet (Hankkija Cy, Helsinki, Finland). Forty rats were divided into four groups of 10, the first serving as a control group. In order to investigate the effect of Compound 4 on lung collagen accumulation, the injury was induced by injecting carbon tetrachloride (CC14) intraperitoneally at doses of 0.1 ml/100 g body weight (diluted with an equal volume of paraffin oil) twice a week for 40 days. The third group received simultaneous doses of CCl4 and Compound 4. Compound 4 was suspended in arabic gum and given by gastric intubation at doses of 100 mg/kg body weight 5 times weekly for 40 days. The fourth group received only Compound 4. Two animals both in the CC14 group died during the experiment.
At the end of the experiment, the rats were anaesthetized with ether, weighed, and decapitated. The lungs were rapidly removed, weighed and the right one of them stored at -70°C until assayed. Tissue specimens for the determination of hydroxyproline and total protein were homogenized with an Ultra-Turrax homogenizer at 0°C in 0.5 M acetic acid (5 ml/g of tissue), dialyzed against 0.5 M acetic acid, and hydrolyzed in 6 M HC1 at 120°C overnight. Tissue hydroxyproline was assayed by the method of Kivirikko et al. and tissue total protein using the a-amino nitrogen method of Rubinstein and Pryce.
The left lung was fixed by slowly injecting a 4% formaldehyde and 1% glutaraldehyde solution into the main bronchus with the 1 ml syringe under magnifying lens control. Inflation of the lungs with fixative was continued until the pleura was smooth and the organ appeared to be filled. The bronchus was then left unclosed and the lungs were placed in the same solution until fixed. When the bronchus is left unclosed, the human lungs, at least, seem to assume a fairly constant volume during fixation, a little greater than the functional residual capacity. The lungs were then sliced sagittally and the slices embedded in paraffin. Sections were cut at 5 µm and stained with heamatoxylin-eosin, Pearl's iron, van Gieson's and Verhoeff's elastic stains.

[3] = CCl4 + Compound 4 (group M+I), CCl4 0.1 ml/100 g i.p. twice a week, Compound 4 100 mg/kg orally 5 times weekly, 40 days
[4] = Compound 4 alone (group M), 100 mg/kg by gastric intubation 5 times weekly for 40 days, no CCl4

COC(=O)C(C(=O)OC)=C1SC=CS1 [Compound 1]
LD50 [1]: > 6000 mg/kg

CCOC(=O)C(C(=O)OCC)=C1SC=CS1 [Compound 2]
LD50 [1]: 4900 mg/kg

CCCOC(=O)C(C(=O)OCCC)=C1SC=CS1 [Compound 3]
LD50 [1]: > 6000 mg/kg

CC(C)OC(=O)C(C(=O)OC(C)C)=C1SC=CS1 [Compound 4]
Lung relative protein (mg/g of lung weight) [2, 3]: 20.61±2.05 mg/g of lung weight
Lung total protein (mg/lungs) [2, 3]: 40.07±6.05 mg/lungs
Lung weight/ body weight (%) [2, 3]: 0.89±0.17%
total hydroxyproline content of the lungs ([2]; CCl4 + Compound 4, 100 mg/kg orally, 40 days (Figure 1)): normalized the values
foci of necrotic alveolar walls ([2]; CCl4 + Compound 4, histology): All the lungs showed some foci of necrotic alveolar walls
interstitial fibrosis ([2]; CCl4 + Compound 4 compared with CCl4-induced rats without Compound 4, histology): less interstitial fibrosis
Lung relative protein (mg/g of lung weight) [2, 4]: 22.20±2.76 mg/g of lung weight
Lung total protein (mg/lungs) [2, 4]: 38.31±4.90 mg/lungs
Lung weight/ body weight (%) [2, 4]: 0.81±0.12%
lungs exhibiting a fairly normal alveolar pattern ([2]; rats which received CCl4 and Compound 4, histology): Five out of the nine
lungs showing variable evidence of inflammatory reaction with minimal oedema ([2]; rats which received CCl4 and Compound 4, nine lungs, histology): four
alveolar pattern in the lungs ([2]; ten rats which received Compound 4 alone, histology): normal

CCCCOC(=O)C(C(=O)OCCCC)=C1SC=CS1 [Compound 5]
LD50 [1]: > 6000 mg/kg

CC(C)COC(=O)C(C(=O)OCC(C)C)=C1SC=CS1 [Compound 6]
LD50 [1]: 4700 mg/kg

CCOC(=O)C(C(=O)OC(C)C)=C1SC=CS1 [Compound 7]
LD50 [1]: 2700 mg/kg

COC(=O)C(C(=O)OCC(C)C)=C1SC=CS1 [Compound 8]
LD50 [1]: 5800 mg/kg
